This note sets out measurements from publication PMC8086025, “A benzopyran with antiarrhythmic activity is an inhibitor of Kir3.1-containing potassium channels” (The Journal of Biological Chemistry, 2021).

Each structure is given as a SMILES string. “And” between values parts separate entries of the source, which are not always exact repeats. Equal values may be shown once. “Also recorded” adds a separate entry of the source. Where only a bound is given, the exact number is not on record here.

One data set addresses T1, Dopamine transporter (Homo sapiens, UniProt Q01959).
T1 construct: expressed in transfected cells; host or cells: CHO cells
Briefly: Radioligand binding, [3H]BTCP.

The target in the next data set is T2, Histamine H2 (Homo sapiens, UniProt P25021).
T2 construct: expressed in transfected cells; host or cells: CHO cells
The data set can be described thus: Radioligand binding, [125I]APT. The conditions noted are these: read-out: % Specific Binding at 10 µM.

The target in data set [1] is T3, Non-steroid nuclear receptors PPARγ (Homo sapiens, UniProt P37231).
T3 construct: purchased; host or cells: E. coli
Briefly: Radioligand binding, [3H]rosiglitazone. The conditions noted are these: read-out: % Specific Binding at 10 µM.

Another data set has as its system sigma (non-selective). The data set can be described thus: Radioligand binding, [3H]DTG, Jurkat cells (endogenous). Particulars: listed as Benzopyran-G1.
In another data set the target is T4, Kir3.4 (Homo sapiens, UniProt P48544).
T4 construct: expressed in transfected cells
Briefly: Cloned cardiac ion channel patch clamp, Kir3.4. It counts as cell-based.

Another data set deals with Kv4.3 (Homo sapiens, UniProt Q9UK17). Briefly: Cloned cardiac ion channel patch clamp, Kv4.3. It counts as cell-based. The protocol:
(§1) For the data shown in Table S6, HEK293 cells expressing Kir3.1/4, Kir6.2/SUR2A (provided by Dr Andrew Tinker), Kir3.4, Kir2.1, and CHO cell lines stably expressing hERG KV1.5, KV4.3, NaV1.5 were maintained in media containing 10% FCS and appropriate selection antibiotic. Cells were grown either in suspension or in T-flasks and routinely passaged. Cells for patch clamping experiments were plated onto glass cover slips prior to use. Cells for automated patch clamping experiments were freshly prepared on each experimental day.
(§2) Standard giga-seal whole-cell patch-clamp techniques were performed at room temperature using glass pipettes (2–5 MΩ). HEKA EPC9/10 amplifiers and Pulse software were used for data acquisition. Series resistance was compensated by >70%. Experimental solutions are given under Supporting information. […]
(§3) Ionic current recordings were analyzed using HEKA software. […]
(§4) Inhibition of current (or leak-subtracted current) was calculated from steady-state current recorded in the absence (IControl) and presence of test-article (IIntervention). […]
(§5) Concentration-response data were fitted with a sigmoidal function of the form above, where YMin and YMax represent maximum and minimum current inhibition which were constrained to 100 and 0 respectively and x is the Log[DRUG (M)] based on GraphPad Prism analysis. % inhibition was calculated as in Equation 1. […]
A general note: In patch-clamp work, channel activity is measured electrically.

The target in another data set is Nav1.5 (Homo sapiens, UniProt Q14524). Briefly: Cloned cardiac ion channel manual patch clamp, Nav1.5. It counts as cell-based. The conditions noted are these: 1Hz; MPC (manual patch clamp). The protocol: as §1, §2, §3, §4, §5
In data set [2] the target is Kir3.4/4(N179D) channel mutant (Homo sapiens, UniProt P48544, N179D). The data set is classed as cell-based. The conditions noted are these: 1 μM, TEVC.
For data set [3], the target named is T5, Kir3.4/4(S143F) with E147A in the Kir3.4(S143F) subunit (Homo sapiens, UniProt P48544, E147A/S143F).
T5 construct: expressed in transfected cells; host or cells: Xenopus laevis oocytes (cRNA injection)
Briefly: TEVC in Xenopus oocytes, E147A mutant in the Kir3.4(S143F) subunit. It counts as cell-based. The conditions noted are these: 1 μM. As for the experimental part:
X. laevis oocytes were isolated and microinjected as previously described ([6]). Human Kir3.1, mouse Kir3.2, and human Kir3.4 DNA constructs were used for electrophysiology experiments. All cRNA constructs were injected in the amount of 2 ng per oocyte. Injected oocytes were incubated for 2 to 3 days at 18 °C to allow for expression. Whole-cell oocyte currents were then measured using a GeneClamp 500 amplifier (Axon Instruments). Microelectrodes had resistances of 0.5 to 1 megohm using a 3M KCl solution in 1.4% agarose. Oocytes were perfused with a low K^+ (LK) solution ND96 (2 mM KCl, 96 mM NaCl, 1 mM MgCl2, 1.8 mM CaCl2, 5 mM HEPES-Na) to establish a baseline for the recordings. Basal current was measured in a high potassium (HK) solution ND96K (96 mM KCl, 10 mM HEPES-K, 1 mM MgCl2, 1.8 mM CaCl2). To block the current, the oocyte chamber was perfused with 4 mM BaCl2 in ND96K. Only the Barium-sensitive current was used for statistical analysis. To measure the inhibitory activity of the channels, 1 μM BP-G1 in ND96K (HK) was used. Typically, oocytes were held at 0 mV (EK) and the current was monitored constantly using a ramp protocol with a command potential from −80 to +80 mV. Current amplitude was measured at the end of a 1 s sweep. All currents were analyzed when they reached steady state. Error bars in the figures represent SD (N > 4).

For the next data set, the target named is hERG channel (Homo sapiens, UniProt Q12809). The data set can be described thus: hERG currents in Xenopus oocytes, TEVC. (Block of hERG is tested as a sign of cardiac risk.)

As usually defined, the IC50 is the concentration that inhibits the measured activity by half. Read a low IC50 as greater potency in that assay. For orientation: Ki means a measure of affinity in units of concentration, obtained from inhibition or displacement.

Sequence of hERG channel (Q12809 whole entry): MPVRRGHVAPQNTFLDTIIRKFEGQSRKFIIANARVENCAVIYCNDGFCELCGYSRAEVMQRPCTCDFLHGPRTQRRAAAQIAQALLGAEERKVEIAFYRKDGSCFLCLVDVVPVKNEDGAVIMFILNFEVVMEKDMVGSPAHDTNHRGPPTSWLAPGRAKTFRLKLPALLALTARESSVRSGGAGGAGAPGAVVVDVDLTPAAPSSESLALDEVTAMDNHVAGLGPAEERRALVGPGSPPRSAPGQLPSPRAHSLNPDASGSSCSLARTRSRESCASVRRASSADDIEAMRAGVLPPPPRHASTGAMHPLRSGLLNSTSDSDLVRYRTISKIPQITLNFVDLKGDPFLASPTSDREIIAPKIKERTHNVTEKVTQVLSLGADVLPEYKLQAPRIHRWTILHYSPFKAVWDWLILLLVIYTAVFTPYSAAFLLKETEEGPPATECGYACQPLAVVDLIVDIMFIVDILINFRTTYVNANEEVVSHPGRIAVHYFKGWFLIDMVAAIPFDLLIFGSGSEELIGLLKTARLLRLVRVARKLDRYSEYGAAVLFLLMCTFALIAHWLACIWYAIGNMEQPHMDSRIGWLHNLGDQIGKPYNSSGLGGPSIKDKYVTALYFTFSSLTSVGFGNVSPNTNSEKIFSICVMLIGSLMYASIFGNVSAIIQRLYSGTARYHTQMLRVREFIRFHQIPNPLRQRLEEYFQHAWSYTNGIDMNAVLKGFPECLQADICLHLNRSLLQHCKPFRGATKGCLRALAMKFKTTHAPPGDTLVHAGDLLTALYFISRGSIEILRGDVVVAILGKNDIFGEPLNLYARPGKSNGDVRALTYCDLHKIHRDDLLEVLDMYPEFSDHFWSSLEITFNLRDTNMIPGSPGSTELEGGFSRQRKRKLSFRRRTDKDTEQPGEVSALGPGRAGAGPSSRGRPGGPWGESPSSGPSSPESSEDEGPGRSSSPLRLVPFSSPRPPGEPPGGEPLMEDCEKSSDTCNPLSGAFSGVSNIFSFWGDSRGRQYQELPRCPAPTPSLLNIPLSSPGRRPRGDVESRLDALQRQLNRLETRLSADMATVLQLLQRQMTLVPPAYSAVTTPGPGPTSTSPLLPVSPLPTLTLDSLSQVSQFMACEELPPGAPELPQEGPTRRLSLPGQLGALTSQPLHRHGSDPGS
T1 sequence (Q01959 whole entry): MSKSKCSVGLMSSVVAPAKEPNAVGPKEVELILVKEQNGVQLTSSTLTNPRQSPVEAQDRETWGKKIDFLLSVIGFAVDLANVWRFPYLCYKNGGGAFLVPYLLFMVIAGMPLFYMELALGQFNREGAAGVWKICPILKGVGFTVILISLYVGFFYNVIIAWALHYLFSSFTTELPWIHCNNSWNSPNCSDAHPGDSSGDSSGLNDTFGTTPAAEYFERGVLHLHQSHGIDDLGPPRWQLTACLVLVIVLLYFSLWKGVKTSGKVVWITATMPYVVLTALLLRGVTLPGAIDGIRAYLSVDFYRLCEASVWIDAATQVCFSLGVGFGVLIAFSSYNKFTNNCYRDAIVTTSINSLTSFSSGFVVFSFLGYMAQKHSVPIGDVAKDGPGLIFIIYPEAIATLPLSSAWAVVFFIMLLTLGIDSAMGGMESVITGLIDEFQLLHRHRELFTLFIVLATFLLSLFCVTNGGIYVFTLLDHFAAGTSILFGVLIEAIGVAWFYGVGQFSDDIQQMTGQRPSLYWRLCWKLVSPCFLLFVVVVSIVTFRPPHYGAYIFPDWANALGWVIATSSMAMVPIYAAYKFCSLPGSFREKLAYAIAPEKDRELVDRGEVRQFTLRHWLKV
T4 sequence (P48544 whole entry): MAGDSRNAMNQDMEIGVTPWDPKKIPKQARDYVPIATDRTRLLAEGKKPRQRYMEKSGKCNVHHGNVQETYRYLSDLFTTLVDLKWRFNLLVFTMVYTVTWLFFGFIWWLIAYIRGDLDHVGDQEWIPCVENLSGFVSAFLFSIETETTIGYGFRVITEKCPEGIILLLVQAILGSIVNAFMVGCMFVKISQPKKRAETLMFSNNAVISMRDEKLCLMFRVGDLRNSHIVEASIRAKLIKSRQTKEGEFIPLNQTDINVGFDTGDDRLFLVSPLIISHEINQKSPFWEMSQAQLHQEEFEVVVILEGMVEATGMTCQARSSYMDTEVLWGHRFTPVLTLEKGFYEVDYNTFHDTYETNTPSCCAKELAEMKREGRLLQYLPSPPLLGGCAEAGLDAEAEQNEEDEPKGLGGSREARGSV
Sequence of Kir3.4/4(N179D) channel mutant (P48544 whole entry, stated change not applied): as the sequence (P48544 whole entry) above
Sequence of Kir3.4/4(N179D) channel mutant (P48544 whole entry N179D): as the sequence (P48544 whole entry) above, with N179D counted along it
T3 sequence (P37231 whole entry): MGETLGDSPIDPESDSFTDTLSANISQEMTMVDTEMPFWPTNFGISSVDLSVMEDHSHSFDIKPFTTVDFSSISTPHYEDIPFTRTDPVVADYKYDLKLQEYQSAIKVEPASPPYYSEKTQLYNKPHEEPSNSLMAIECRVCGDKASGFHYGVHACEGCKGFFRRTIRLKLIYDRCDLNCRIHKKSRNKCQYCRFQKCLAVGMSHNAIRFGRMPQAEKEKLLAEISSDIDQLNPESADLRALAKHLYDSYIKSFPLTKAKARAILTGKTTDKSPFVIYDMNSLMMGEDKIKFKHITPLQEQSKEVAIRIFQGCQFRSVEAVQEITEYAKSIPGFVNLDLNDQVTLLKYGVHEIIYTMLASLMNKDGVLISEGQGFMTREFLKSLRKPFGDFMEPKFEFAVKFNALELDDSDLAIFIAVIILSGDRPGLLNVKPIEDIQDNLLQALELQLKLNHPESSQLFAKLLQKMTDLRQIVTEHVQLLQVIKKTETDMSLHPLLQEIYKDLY
T2 sequence (P25021 whole entry): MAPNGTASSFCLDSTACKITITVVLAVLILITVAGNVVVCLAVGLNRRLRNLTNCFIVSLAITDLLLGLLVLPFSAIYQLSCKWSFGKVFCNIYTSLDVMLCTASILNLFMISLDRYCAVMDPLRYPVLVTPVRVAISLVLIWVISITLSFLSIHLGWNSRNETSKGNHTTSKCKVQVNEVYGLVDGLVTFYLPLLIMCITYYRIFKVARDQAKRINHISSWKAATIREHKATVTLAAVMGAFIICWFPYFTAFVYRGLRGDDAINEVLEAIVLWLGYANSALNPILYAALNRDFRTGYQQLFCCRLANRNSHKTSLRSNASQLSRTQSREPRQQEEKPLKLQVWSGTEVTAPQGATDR
T5 sequence (P48544 whole entry S143F/E147A): as the sequence (P48544 whole entry) above, with S143F, E147A counted along it
T5 sequence (P48544 whole entry, stated change not applied): as the sequence (P48544 whole entry) above
Sequence of Kv4.3 (Q9UK17 whole entry): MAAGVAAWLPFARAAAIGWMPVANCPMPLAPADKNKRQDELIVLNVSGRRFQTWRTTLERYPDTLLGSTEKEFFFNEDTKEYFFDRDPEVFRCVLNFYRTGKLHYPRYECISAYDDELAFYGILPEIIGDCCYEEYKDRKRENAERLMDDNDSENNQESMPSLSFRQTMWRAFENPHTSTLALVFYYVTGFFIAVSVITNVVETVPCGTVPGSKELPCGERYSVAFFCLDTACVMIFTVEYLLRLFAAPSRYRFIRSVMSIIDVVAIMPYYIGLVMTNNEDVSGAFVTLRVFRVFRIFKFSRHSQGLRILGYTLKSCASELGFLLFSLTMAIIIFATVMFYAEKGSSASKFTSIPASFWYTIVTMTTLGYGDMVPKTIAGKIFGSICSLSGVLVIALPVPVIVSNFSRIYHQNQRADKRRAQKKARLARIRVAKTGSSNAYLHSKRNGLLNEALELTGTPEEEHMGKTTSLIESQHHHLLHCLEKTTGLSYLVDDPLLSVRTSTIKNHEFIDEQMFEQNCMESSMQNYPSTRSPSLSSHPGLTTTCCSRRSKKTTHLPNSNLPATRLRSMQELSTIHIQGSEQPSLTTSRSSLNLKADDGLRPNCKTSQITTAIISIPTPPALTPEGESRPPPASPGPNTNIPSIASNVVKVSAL

`Cc1cc(CO)nc2cc3c(cc12)OC(C)(C)[C@H](O)[C@H]3NCCc1ccccc1` [BP-G1, (3R,4S)-7-(hydroxymethyl)-2,2,9-trimethyl-4-(2-phenylethylamino)-3,4-dihydropyrano[2,3-g]quinolin-3-ol]: the IC50 on Dopamine transporter is 1 µM; against Kir3.4 it was 19.8 µM; on Kv4.3, 11.3 µM; at Nav1.5 it was above 10 µM; against hERG channel, above 5 µM. Moreover, on Dopamine transporter, the Ki was 0.55 µM. Also, on Dopamine transporter, the “nH, Dopamine transporter (h)” value stood at 1. Moreover, the “% Specific Binding at 10 µM” value at Dopamine transporter (10 µM) was 91.2%; in the data set on sigma (non-selective) it was 40.267% and < 50%. In addition, the inhibition at 10 µM is 91.2% on Dopamine transporter (10 µM, read-out: % Specific Binding at 10 µM); 35.5% on Histamine H2; below 50% in data set [1]. The “inhibition of Kir3.4/4(N179D)” value in [2] is “did not inhibit”. Moreover, the “block of Kir3.4/4(S143F) carrying E147A” value in [3] was “abolished block”. Besides, the “inhibitory activity on hERG current” value at hERG channel (up to 5 μM, Xenopus oocytes) is “did not show inhibitory activity; also recorded: not inhibited”.
